The source of these data is paper PMC10145310, “Optimization of Ultrasonic-Assisted Extraction of α-Glucosidase Inhibitors from Dryopteris crassirhizoma Using Artificial Neural Network and Response Surface Methodology” (Metabolites, 2023).

One test concerns RAW264.7 cells. Also noted: method as in PMID 34971945. Conditions: RAW264.7 cells induced with lipopolysaccharide; cited from earlier work.
A further test addresses T1, α-glucosidase (Saccharomyces cerevisiae, UniProt P53341).
T1 construct: purchased Merck (Germany) G5003
Put plainly: α-glucosidase inhibition assay (4-nitrophenyl-D-glucopyranoside substrate, 405 nm). It counts as biochemical. Conditions: for inhibition at 100 µM: compound at 100 µM, mean ± SEM, triplicate. The protocol:
The α-glucosidase assay was performed as previously described. First, 130 μL of α-glucosidase (0.16 unit/mL) in 0.1 mM phosphate buffer (pH 6.8) was added to a 96-well plate with 20 μL of test compounds dissolved in dimethylsulfoxide. Then, 50 μL of 1 mM substrate (4-nitrophenyl-D-glucopyranoside) in the buffer was added to the mixture. The intensity of p-nitrophenol converted from 4-nitrophenyl-D-glucopyranoside by α-glucosidase was measured after […] at 405 nm using Infinite 200 PRO spectrophotometer (Tecan, Zürich, Switzerland). (1) Inhibitory activity rate (%)=[(ΔC−ΔS)/ΔC]×100 where ΔC and ΔS are the intensity of control and inhibitor after 20 min, respectively. […] The inhibitory effect was elucidated via triplicate independent experiments. […] Statistical differences were investigated using one-way ANOVA and Duncanʹs test with a p-value < 0.05. SigmaPlot 10.0 (Systat Software Inc., San Jose, CA, USA) was used to analyze the inhibition results.

The test system of another test is PTP1B. More on the design: method as in PMID 34416263. Conditions: previous studies; cited from earlier work.
The target of a further test is β-glucuronidase. More on the design: method as in PMID 36295840. The note with it: previous studies; cited from earlier work.
Test [1] relates to platelet aggregation induced by collagen. More on the design: method as in PMID 31200488. Conditions: cited from earlier work.
Test [2] concerns platelet aggregation induced by arachidonic acid. More on the design: method as in PMID 31200488. Conditions: cited from earlier work.
A further test has as its system SARS-CoV-2. More on the design: method as in PMID 35214108. Conditions: Vero cells, immunofluorescence-based antiviral assays; cited from earlier work.
The subject of a further test is influenza A virus H1N1. Also noted: method as in PMID 34971945. The note with it: cited from earlier work.

Usually inhibition stands for how much of the control response was suppressed. Lower therefore signals a weak effect. Broadly, the IC50 is the concentration needed to halve the response being measured.

T1 sequence (P53341 whole entry): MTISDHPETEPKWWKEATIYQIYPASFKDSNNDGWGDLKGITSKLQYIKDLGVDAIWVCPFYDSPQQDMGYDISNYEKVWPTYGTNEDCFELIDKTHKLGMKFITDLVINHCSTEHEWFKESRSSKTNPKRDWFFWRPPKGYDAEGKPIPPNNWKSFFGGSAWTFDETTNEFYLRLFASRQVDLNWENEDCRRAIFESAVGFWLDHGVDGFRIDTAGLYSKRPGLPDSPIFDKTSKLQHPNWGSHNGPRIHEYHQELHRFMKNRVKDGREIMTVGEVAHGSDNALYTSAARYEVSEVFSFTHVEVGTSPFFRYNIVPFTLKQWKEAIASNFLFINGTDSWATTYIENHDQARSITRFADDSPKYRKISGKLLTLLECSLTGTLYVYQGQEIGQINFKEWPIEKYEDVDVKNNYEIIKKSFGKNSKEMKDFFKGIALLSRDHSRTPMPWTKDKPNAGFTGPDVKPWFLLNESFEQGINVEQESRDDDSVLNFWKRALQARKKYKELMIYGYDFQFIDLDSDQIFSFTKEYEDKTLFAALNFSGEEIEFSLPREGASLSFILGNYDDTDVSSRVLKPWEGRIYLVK

Turning to 3″-epi-dryoptol G, the “effect on production of nitric oxide and secretion of IL-1β and IL-18” value in the test on RAW264.7 cells is “significant inhibitory effects”. With `C[C@H]1O[C@H](O[C@H]2[C@H](O)[C@@H](O)[C@@H](O[C@H]3[C@H](O)[C@@H](O)C(O)O[C@@H]3CO)O[C@@H]2CO)[C@H](O)[C@@H](O)[C@@H]1N[C@H]1C=C(CO)[C@@H](O)[C@H](O)[C@H]1O` (stereo partly shown) [Acarbose, acarbose], at α-glucosidase, at 100 µM the inhibition was 21.7 ± 1.43%. The same measure, in the same setting: to `CCC(=O)c1c(O)c(C)c(O)c(CC2=C(O)C(C)(C)C(O)=C(C(C)=O)C2=O)c1O` [Compound 1, flavaspidic acid AP] belongs less than 50%.

As for `CCCC(=O)c1c(O)cc(O)c(Cc2c(O)c(CC3=C(O)C(C)(C)C(O)=C(C(C)=O)C3=O)c(O)c(C(=O)CCC)c2O)c1O` [Compound 2, nortrisflavaspidic acid ABB], the IC50 is 34 ± 0.14 µM at α-glucosidase, 1.19 ± 0.13 µM with PTP1B and 8 ± 1.8 µM at β-glucuronidase. The inhibition at 100 µM at α-glucosidase is more than 50%. Turning to `CCCC(=O)c1c(O)cc(O)c(C)c1O` [butyryl-3-methylphloroglucinol], the “inhibition of platelet aggregation, ratio” value in test [1] is given as 92.36%; in test [2] it was 89.51%.

For the compound dryocrassin ABBA, the “inhibitory activity against SARS-CoV-2 infection” value in the test on SARS-CoV-2 is given as “dose-dependent inhibitory activity”. With dryoptol G, the “effect on production of nitric oxide and secretion of IL-1β and IL-18” value with RAW264.7 cells is “significant inhibitory effects”. Turning to filixic acid ABA, the “inhibitory activity against SARS-CoV-2 infection” value in the test on SARS-CoV-2 is “dose-dependent inhibitory activity”. For the same compound, in the test on influenza A virus H1N1, the “antiviral effect against influenza A virus H1N1” value is “responsible for the antiviral effect”.
